Source: US8440424B2, “Identification of antibiotic resistance using labelled antibiotics” (miacom Diagnostics GmbH, priority 2008, dated 2013)
Like-named read-outs stand apart in the source and are kept apart here.

How the values were obtained:
23S rRNA = conditions: cited from earlier work
[1] = system: High level Aminoglycoside Resistance in Enterococci (HLAR); test: Binding of fluorescent labelled antibiotic, resistant vs non-resistant form: HLAR; conditions: reduction in Streptomycin binding; HLAR Enterococci relative to non-resistant form; fluorescent label
Protocol: (§1) An in-situ hybridisation protocol may be applied as laid down in patent application EP 06 021 267.7, which is incorporated herein by reference. The incubation with a labelled antibiotic may be performed at temperatures below the Tm of the hybridised probe. In a preferred embodiment the temperature is between about 25 and about 65° C., in a more preferred embodiment the temperature is between about 35° C. and about 59° C. In an even more preferred embodiment, the temperature is at about 52° C. The incubation time is preferably between about 1 and about 30 minutes. In a more preferred embodiment the incubation is made for about 15 minutes. After the incubation the slide may be submerged in 50% ethanol followed by a bath in pure ethanol. Both steps may be run for between about 1 and about 10 minutes. The preferred length of incubation is between about 2 and about 6 minutes. It is more preferred to incubate about 4 minutes. […]
(§2) An antibiotic resistance, such as a resistance against penicillin, may be detected in a protocol comprising the steps:
(§3) Table 4 indicates the alteration of the amount of detectable labelled antibiotics in clinically relevant micro-organisms in its resistant form relative to its non-resistant form. The amount is expressed in % change of fluorescence (decrease and increase, respectively) of an antibiotic which carries a fluorescent label.

[2] = system: Vancomycin resistant SA (VRSA); test: Binding of fluorescent labelled antibiotic, resistant vs non-resistant form: VRSA; parameters: species or system Staphylococcus aureus; conditions: binding of labelled Vancomycin relative to non-resistant form
Description: (§4) Another preferred application is the detection of the binding of Vancomycin to surface proteins of Staphylococcus aureus which are anchored to the cell wall peptidoglycan. Vancomycin resistant Staphylococci bind the antibiotic to such an extent that it renders Vancomycin ineffective. Labelled Vancomycin therefore will preferably bind to resistant organisms.
(§5) An in-situ hybridisation protocol may be applied as laid down in patent application EP 06 021 267.7, which is incorporated herein by reference. The incubation with a labelled antibiotic may be performed at temperatures below the Tm of the hybridised probe. In a preferred embodiment the temperature is between about 25 and about 65° C., in a more preferred embodiment the temperature is between about 35° C. and about 59° C. In an even more preferred embodiment, the temperature is at about 52° C. The incubation time is preferably between about 1 and about 30 minutes. […]
as §2, §3

[3] = system: Vancomycin resistant Enterococci (VRE); conditions: stated as resistance mechanism; cited from earlier work
[4] = system: Vancomycin intermediary SA (VISA); test: Binding of fluorescent labelled antibiotic, resistant vs non-resistant form: VISA; parameters: species or system Staphylococcus aureus; conditions: increased binding of Vancomycin; VISA relative to non-resistant form; fluorescent label
Protocol: as §1, §2, §3

[5] = system: Vancomycin resistant Staph (VRS); test: Binding of fluorescent labelled antibiotic, resistant vs non-resistant form: VRS; parameters: species or system Staphylococci (CNS); conditions: increased binding of Vancomycin; VRS relative to non-resistant form; fluorescent label
Description: as §4, §5, §2, §3

[6] = system: Vancomycin resistant Enterococci (VRE); test: Binding of fluorescent labelled antibiotic, resistant vs non-resistant form: VRE; conditions: reduction of vancomycin binding; VRE relative to non-resistant form; fluorescent label
Protocol: as §1, §2, §3

[7] = system: Extended Spectrum β-Lactamase (ESBL) Pseudomonas spp.; test: Binding of fluorescent labelled clavulanic acid: ESBL Pseudomonas spp.; conditions: increase, ESBL Pseudomonas spp. relative to non-resistant form
Protocol: as §1, §2, §3

[8] = system: Extended Spectrum β-Lactamase (ESBL) BCC; test: Binding of fluorescent labelled clavulanic acid: ESBL BCC; conditions: increase, ESBL BCC relative to non-resistant form
Protocol: as §1, §2, §3

[9] = system: Extended Spectrum β-Lactamase (ESBL) Acinetobacter; test: Binding of fluorescent labelled clavulanic acid: ESBL Acinetobacter; conditions: increase, ESBL Acinetobacter relative to non-resistant form
Protocol: as §1, §2, §3

[10] = system: Extended Spectrum β-Lactamase (ESBL) Stenotrophomonas maltophilia; test: Binding of fluorescent labelled clavulanic acid: ESBL Stenotrophomonas maltophilia; conditions: increase, ESBL Stenotrophomonas maltophilia relative to non-resistant form
Protocol: as §1, §2, §3

[11] = system: Extended Spectrum β-Lactamase (ESBL) Enterobacteriaceae; test: Binding of fluorescent labelled clavulanic acid: ESBL Enterobacteriaceae; conditions: increase, ESBL Enterobacteriaceae relative to non-resistant form
Protocol: as §1, §2, §3

[12] = system: Community acquired MRSA (CA-MRSA); type: binding, Staphylococcus aureus
Protocol: The incubation with a labelled antibiotic may be performed at temperatures below the Tm of the hybridised probe. In a preferred embodiment the temperature is between about 25 and about 65° C., in a more preferred embodiment the temperature is between about 35° C. and about 59° C. In an even more preferred embodiment, the temperature is at about 52° C. The incubation time is preferably between about 1 and about 30 minutes. In a more preferred embodiment the incubation is made for about 15 minutes. After the incubation the slide may be submerged in 50% ethanol followed by a bath in pure ethanol. Both steps may be run for between about 1 and about 10 minutes. The preferred length of incubation is between about 2 and about 6 minutes. It is more preferred to incubate about 4 minutes. The slides may then be air-dried (e.g. on a hot plate) and the cells may be embedded in a balanced salt mounting medium.

[13] = system: Oxacillin resistant SA (ORSA); test: Binding of fluorescent labelled antibiotic, resistant vs non-resistant form: ORSA; parameters: species or system Staphylococcus aureus; conditions: reduction of penicillin binding; ORSA relative to non-resistant form; fluorescent label
Protocol: as §1, §2, §3

[14] = system: Border.line oxacillin resistant SA (BORSA); test: Binding of fluorescent labelled antibiotic, resistant vs non-resistant form: BORSA; parameters: species or system Staphylococcus aureus; conditions: reduction of penicillin binding; BORSA relative to non-resistant form; fluorescent label
Protocol: as §1, §2, §3

[15] = system: Methicillin Resistant Staphylococcus aureus (MRSA); test: Binding of fluorescent labelled antibiotic, resistant vs non-resistant form: MRSA; conditions: reduction of Penicillin binding; MRSA relative to non-resistant form; antibiotic carries a fluorescent label
Protocol: as §1, §2, §3

## [H]/N=C(/N)N[C@H]1[C@H](O)[C@@H](O)[C@H](O[C@@H]2O[C@@H](C)[C@](O)(C=O)[C@H]2O[C@@H]2O[C@@H](CO)[C@H](O)[C@@H](O)[C@@H]2NC)[C@@H](N/C(N)=N\[H])[C@@H]1O [Streptomycin, reference compound]
23S rRNA; 23S rRNA position 2661 "G to C", E. coli, when expressed with Smr, hyperaccurate S12 mutation
  Phenotype: streptomycin dependent
[1]
  % Change in Fluorescenc: >80%

## CN[C@H](CC(C)C)C(=O)N[C@H]1C(=O)N[C@@H](CC(N)=O)C(=O)N[C@H]2C(=O)N[C@H]3C(=O)N[C@H](C(=O)N[C@H](C(=O)O)c4cc(O)cc(O)c4-c4cc3ccc4O)[C@H](O)c3ccc(c(Cl)c3)Oc3cc2cc(c3O[C@@H]2O[C@H](CO)[C@@H](O)[C@H](O)[C@H]2O[C@H]2C[C@](C)(N)[C@H](O)[C@H](C)O2)Oc2ccc(cc2Cl)[C@H]1O [Vancomycin]
[2]
  Effect of resistance on fluorescence: Increased
[3]
  Reduced affinity to Van: Reduced affinity to Van by 3 orders of magnitude
[4]
  % Change in Fluorescenc: 20-50%
[5]
  % Change in Fluorescenc: >50%
[6]
  % Change in Fluorescenc: >80%

## O=C(O)[C@H]1/C(=C/CO)O[C@@H]2CC(=O)N21 [clavulanic acid]
[7]
  % Change in Fluorescenc: >80%
[8]
  % Change in Fluorescenc: >80%
[9]
  % Change in Fluorescenc: >80%
[10]
  % Change in Fluorescenc: >80%
[11]
  % Change in Fluorescenc: >80%

## C=C(NC(=O)C(=C)NC(=O)c1csc(C2=N[C@@H]3c4csc(n4)[C@H]4NC(=O)c5csc(n5)[C@H]([C@](C)(O)[C@@H](C)O)NC(=O)[C@H]5CSC(=N5)/C(=C/C)NC(=O)[C@H]([C@@H](C)O)NC(=O)c5csc(n5)[C@]3(CC2)NC(=O)[C@H](C)NC(=O)C(=C)NC(=O)[C@H](C)NC(=O)[C@H]([C@@H](C)CC)N[C@@H]2C=Cc3c([C@H](C)O)cc(nc3[C@H]2O)C(=O)O[C@@H]4C)n1)C(N)=O [thiostrepton]
23S rRNA; 23S rRNA position 1056 G to C, E. coli
  Phenotype: binding in RNA fragments: weakened in RNA
23S rRNA; 23S rRNA position 1067 A to C, E. coli
  Phenotype: drug binding affinity: affinity is reduced similarly.
23S rRNA; 23S rRNA position 1067 A to G, E. coli
  Phenotype: drug binding affinity: affinity is reduced similarly.
23S rRNA; 23S rRNA position 1067 A to U, E. coli
  Phenotype: drug binding affinity: affinity is reduced similarly.
23S rRNA; 23S rRNA position 1067 A to U, E. coli, mutant constituted 30% of the total 23S rRNA pool in the ribosomes
  Phenotype: thiostrepton resistance in poly (U) translation: ribosomes; exhibited 30%

## COc1cc(Cc2cnc(N)nc2N)cc(OC)c1OC [trimethoprim, Trimethoprim]
[12]; CA-MRSA, binding capacity for the labelled antibiotic
  Effect of resistance on fluorescence: Maintaims binding

## Penicillin
[13]
  % Change in Fluorescenc: > to ≈80%
[14]
  % Change in Fluorescenc: > to ≈80%
[12]; reduction of penicillin binding, CA-MRSA relative to non-resistant form, antibiotic carries a fluorescent label
  % Change in Fluorescenc: > to ≈80%
[15]
  % Change in Fluorescenc: > to ≈80%

## spiramycin
23S rRNA; 23S rRNA position 2611 "C to G", Chlamydomonas reinhardtii, Gauthier et al. 1988
  Phenotype: spiramycin resistance
23S rRNA; 23S rRNA position 2611 "C to G", Yeast mitochondria, Sor and Fukahara 1984
  Phenotype: spiramycin resistance
